The values that follow are results of earlier work, collected in US20120064058A1, “COMPOSITIONS FOR PROTEIN-BASED DIETARY PRODUCTS” (ITALFARMACIA SRL, priority 2008, published 2012).

Each structure is given as a SMILES string.

The subject of series [1] is diabetic rats.
Series [2] deals with rats.
[3] abbreviates: compared with untreated diabetic rats.

Turning to `NCC(=O)O` [Glycine], in series [1] (setting [3]), the “expression of O-acetyl sialic acid in brain vessels” value is “diminished expression”; the “incidence of opacity in lens and microaneurysms in the eyes” value is on record as “reduced incidence”. Also, the corporal weight loss result in series [1] (in comparison with non-treated animals) is on record as “less intense corporal weight loss”.
For the molecule `N=C(N)NCCC[C@H](N)C(=O)O` [L-Arginine], the “excretion of orotic acid in the urine” value in series [2] is “less excretion of orotic acid in the urine”. Besides, the kidney hypertrophy result in series [2] (long-term consequence of a protein rich regimen) is reported as “can prevent kidney hypertrophy”.
For `NCCS(=O)(=O)O` [L-Taurine], the renal functionality result in series [1] is recorded as “beneficial effects on renal functionality”.
